US20230190933A1, “Immunologically Active Peptide-Biliverdin Conjugate, Preparation Method Therefor and Application Thereof” (priority 2020, published 2023)
Where no end group is shown, it is not given here.

Key:
[1] = tested on: mouse colon cancer cells ct-26
Procedure: According to the standard tumor mouse modeling method, C57BL/6 mouse model was established, and the mouse colon cancer cells ct-26 were inoculated subcutaneously, and then these mice were fed in SPF environment. […] The mice were divided into the following four groups: blank group (normal saline), conjugate group (no light group) and conjugate group (light group), with 10 mice in each group. These mice were administered once on the 1st, 3rd, 8th and 12th day with the administration concentration being 2 mg kg^-1. Wherein, the mice of the conjugate (light group) were irradiated with laser once 4 hours after administration on the first day, and the parameters were as follows: the laser intensity was 0.5 W/cm^2 and the laser wavelength was 808 nm. The tumor inhibition of mice during the whole treatment cycle (the cycle is 45 days) was monitored.

[2] = cyclic (three) photothermal heating curves; type: physicochemical; settings: compared with biliverdin molecule; three heating cycles
[3] = tested on: Human Umbilical Vein Endothelial Cells HUVEC; assay: MTT colorimetric method, incubation in the dark; type: cell-based; settings: different concentration gradients
Procedure: The biliverdin-[…] conjugate was prepared from biliverdin molecule and […] according to the chemical synthesis method of Example 1. […] The prepared conjugates with different concentration gradients were incubated with Human Umbilical Vein Endothelial Cells HUVEC in the dark, and the biological safety of the conjugates was evaluated by MTT colorimetric method.

[4] = tested on: cervical cancer U14 mouse model; settings: 5 mg kg^-1 intraperitoneally; 2nd, 4th and 7th day
[5] = tested on: in-situ model of pancreatic cancer Pan02; settings: 4 mg kg^-1, presence and absence of light (730 nm, 0.5 W/cm^2), 15th day
[6] = tested on: lung cancer Lewis; assay: combination of photothermal immunotherapy and immunotherapy (interferon); type: in vivo; settings: conjugate 3 mg kg^-1 combined with interferon 20U/ mouse, initial volume 300 mm^3
Procedure: (§1) The biliverdin-[…] conjugate was prepared from biliverdin molecule and […] according to the above chemical synthesis method.

[7] = tested on: skin melanoma B16-F10; assay: as above; type: in vivo; settings: conjugate 3 mg kg^-1 combined with interferon 20U/ mouse, initial volume 300 mm^3
Procedure: as §1

[8] = temperature rise in vitro under laser irradiation; type: physicochemical; settings: 0.2 mg mL^-1, 730 nm laser, 0.3 W/cm^2, 10 min
Procedure: Firstly, biliverdin-Mn metal complex was chemically synthesized by biliverdin and excess manganese acetate tetrahydrate, and the biliverdin-Mn-[…] conjugate was prepared from biliverdin-Mn metal complex and […] according to the aforementioned chemical synthesis method. […] 1 mL of this conjugate (at a concentration of 0.2 mg mL^-1) was irradiated at 730 nm laser (0.3 W/cm^2) for 10 min, and the temperature rise of the conjugate solution was investigated.

[9] = tested on: mouse breast cancer cells 4T1; settings: absence of light; 100 uL of 0.2 mg mL^-1 intraperitoneally on day 1, 2, 4, 8; 28 days

biliverdin-QQKFQFQFEQQ conjugate [Example 9]
therapeutic effect of tumor photothermal immunotherapy (tumor inhibition curve) ([1]; 2 mg kg^-1 on day 1, 3, 8, 12, 45 day cycle): good therapeutic effect
tumor clearance ([1]; light group, 2 mg kg^-1, 808 nm 0.5 W/cm^2, 29th day after treatment): all the mice tumors were cleared
tumor recurrence ([1]; light group, monitored from the 30th day to the 45th day): can effectively prevent tumor recurrence

biliverdin-SIINFEKL conjugate [Example 1]
cyclic stability of photothermal heating [2]: better cyclic stability
photothermal heating effect [2]: better heating effect
cytotoxicity (cell activity) [3]: no obvious cytotoxicity

biliverdin-EQLESIINFEKLTE conjugate [Example 13]
immune effect (CD4+T and CD8+T cells in spleen and draining lymph nodes) [4]: has immune effect

biliverdin-Ga-FKFEFKFE conjugate [Example 10]
immune promoting factor content in tumor (IFN-7) [5]: up-regulate the organism’s immunity
immune suppressing factor content in tumor (IL-4 and IL-10) [5]: down-regulate the immunosuppressive behavior

biliverdin-PDRAHYNI conjugate [Example 15]
combined inhibitory effect on tumor [6]: significantly enhances the anti-tumor effect
combined inhibitory effect on tumor [7]: significantly enhances the anti-tumor effect

biliverdin-Mn-YLEPGPVTA conjugate [Example 7]
photo-thermal conversion effect (temperature rise) [8]: good photo-thermal conversion effect

biliverdin-IMDQVPFSV conjugate [Example 8]
anti-tumor behavior (tumor volume) [9]: potential immune anti-tumor activity
